Source: PubChem BioAssay (NCI)
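Following 48 hours of exposure in 96-well plates, responses at five concentrations were used to interpolate endpoints linearly. TGI marks complete inhibition of growth.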

Columns and labels:
Test in all cases: NCI anticancer screen, dose series, 48 h
786-0 renal = test system: 786-0 renal
HOP-62 NSCLC = test system: HOP-62 NSCLC
RPMI-8226 leukemia = test system: RPMI-8226 leukemia
SK-MEL-28 melanoma = test system: SK-MEL-28 melanoma
NCI-H226 lung = test system: NCI-H226 lung
U251 CNS = test system: U251 CNS
HCC-2998 colon = test system: HCC-2998 colon
HCT-15 colon = test system: HCT-15 colon
M14 melanoma = test system: M14 melanoma
NCI/ADR-RES ovarian = test system: NCI/ADR-RES ovarian
MDA-MB-435 = test system: MDA-MB-435
MDA-MB-231 breast = test system: MDA-MB-231 breast
SK-OV-3 ovarian = test system: SK-OV-3 ovarian
COLO 205 colon = test system: COLO 205 colon
OVCAR-4 ovarian = test system: OVCAR-4 ovarian
CCRF-CEM leukemia = test system: CCRF-CEM leukemia
MALME-3M melanoma = test system: MALME-3M melanoma
T-47D breast = test system: T-47D breast

Row | SMILES | TGI (786-0 renal) [µM] | TGI (HOP-62 NSCLC) [µM] | TGI (RPMI-8226 leukemia) [µM] | TGI (SK-MEL-28 melanoma) [µM] | TGI (NCI-H226 lung) [µM] | TGI (U251 CNS) [µM] | TGI (HCC-2998 colon) [µM] | TGI (HCT-15 colon) [µM] | TGI (M14 melanoma) [µM] | TGI (NCI/ADR-RES ovarian) [µM] | TGI (MDA-MB-435) [µM] | TGI (MDA-MB-231 breast) [µM] | TGI (SK-OV-3 ovarian) [µM] | TGI (COLO 205 colon) [µM] | TGI (OVCAR-4 ovarian) [µM] | TGI (CCRF-CEM leukemia) [µM] | TGI (MALME-3M melanoma) [µM] | TGI (T-47D breast) [µM]
1 | CC(C)(C)[Si](C)(C)OCC1OC(n2ccc(=O)[nH]c2=O)C(O[Si](C)(C)C(C)(C)C)[C@@]12O[C@H]2C(N)=O (stereo partly drawn) | 29.9 | 26.8 | > 100 | > 100 | 11.4 | 23.2 | > 100 | 28.4 | 42.9 | 38.5 | 23.1 | 21.7 | 36.6 | 24.8 | 89.5 | – | – | –
2 | COC(=O)C1C2C=CC(C2)C1(C(=O)OC)S(=O)CC12CCC(CC1O)C2(C)C (stereo not drawn) | > 100 | > 100 | > 100 | > 100 | > 100 | > 100 | > 100 | 37.7 | > 100 | – | – | – | > 100 | > 100 | > 100 | > 100 | > 100 | –
3 | C=CN1C(=O)OC[C@@H]1c1ccccc1 | > 100 | > 100 | > 100 | > 100 | > 100 | > 100 | > 100 | > 100 | > 100 | – | – | – | > 100 | > 100 | > 100 | > 100 | > 100 | –
4 | O=c1[nH]c(=O)n(COCCO)c2ccc(Br)cc12 | > 100 | – | – | > 100 | > 100 | > 100 | – | > 100 | > 100 | > 100 | > 100 | > 100 | > 100 | > 100 | > 100 | > 100 | – | –
5 | NC1=NNC2(C(=O)N1)c1ccccc1-c1ccccc12 | > 10 | > 10 | > 10 | > 10 | > 10 | > 10 | > 10 | > 10 | > 10 | > 10 | – | – | > 10 | > 10 | – | > 10 | > 10 | > 10
6 | CCC(CC)n1cc(C(=O)NC(=O)NCCCCCOC(=O)CCCCCCCCCCC(=O)OCCCCCNC(=O)NC(=O)c2cn(C(CC)CC)c(=O)[nH]c2=O)c(=O)[nH]c1=O | > 100 | > 100 | > 100 | > 100 | > 100 | > 100 | > 100 | > 100 | > 100 | – | – | – | > 100 | > 100 | > 100 | > 100 | > 100 | –
7 | OCC1OC(Oc2cc(O)cc(/C=C/c3ccc(O)cc3)c2)C(O)C(O)C1O (stereo not drawn) | > 100 | > 100 | > 100 | > 100 | > 100 | > 100 | – | > 100 | – | > 100 | > 100 | > 100 | > 100 | – | > 100 | > 100 | – | –
8 | CCn1c2ccccc2c2ccc3c(c21)C(=O)c1ccccc1C3=O | > 100 | > 100 | > 100 | > 100 | > 100 | > 100 | > 100 | > 100 | > 100 | – | – | – | > 100 | > 100 | > 100 | > 100 | > 100 | –
9 | O=C(Cc1ccccc1)NN1C(=O)C(Cl)C1c1ccc([N+](=O)[O-])cc1 (stereo not drawn) | > 100 | > 100 | > 100 | > 100 | > 100 | > 100 | > 100 | > 100 | > 100 | – | – | – | > 100 | > 100 | > 100 | – | > 100 | –
10 | COc1cc2c(cc1OC)CC(=O)c1cc(OC)c(OC)cc1/C=C\2 | > 12.5 | > 12.5 | > 12.5 | > 12.5 | > 12.5 | > 12.5 | – | > 12.5 | > 12.5 | > 12.5 | > 12.5 | > 12.5 | > 12.5 | > 12.5 | > 12.5 | > 12.5 | > 12.5 | –
11 | C(=Nc1ccc(-c2cc(-c3ccccc3)nc3ccc4ccccc4c23)cc1)c1ccccc1 | > 100 | 56.1 | > 100 | > 100 | 66.3 | > 100 | 26.6 | > 100 | 50.4 | > 100 | 55.5 | > 100 | > 100 | 42.6 | 13.5 | > 100 | > 100 | –
12 | COc1ccc(N(C)Sc2ccccc2)cc1 | 34.9 | > 100 | > 100 | > 100 | – | > 100 | > 100 | > 100 | > 100 | – | – | – | > 100 | > 100 | – | 58.6 | > 100 | –
13 | N#Cc1c(-c2ccc(Cl)cc2)c(C#N)c(=O)n(NS(=O)(=O)c2ccccc2)c1S | 34.6 | – | 75.6 | – | 77.1 | 71.9 | – | 49.6 | > 100 | 74.2 | 65 | 75.2 | > 100 | > 100 | > 100 | > 100 | > 100 | –
14 | Nc1ccc(C(=O)NN2C(=O)C(Cl)C2c2cc(Br)ccc2O)cc1 (stereo not drawn) | > 100 | > 100 | > 100 | > 100 | > 100 | 90.3 | > 100 | > 100 | > 100 | – | – | – | > 100 | > 100 | > 100 | > 100 | > 100 | –
15 | CN(C(=O)c1ccc(Cl)cc1)C(=S)N1CCN(c2ccccn2)CC1 | > 100 | > 100 | > 100 | > 100 | > 100 | > 100 | – | > 100 | > 100 | – | – | – | > 100 | > 100 | > 100 | > 100 | > 100 | –
16 | C=CCN(N=O)C(=O)N(CCCC(NC(C)=O)C(=O)NCc1ccccc1)Cc1ccccc1 (stereo not drawn) | > 100 | > 100 | 59.4 | > 100 | – | > 100 | – | > 100 | > 100 | – | – | – | > 100 | > 100 | > 100 | 95.6 | > 100 | –
